The target in the assay is SARS-CoV-2 3CL protease (Severe acute respiratory syndrome coronavirus 2, UniProt P0DTD1). As to the kind of experiment: biochemical. Conditions: IC50.

Several values for one entry are separate records, joined by “and”; a condition that tells them apart may be missing. Equal entries are not always repeated.

In general, IC50 refers to the point on the concentration scale where inhibition reaches its midpoint. A lower IC50 goes with higher potency.

On to `O=c1[nH]cccc1Cn1c(=O)nc(NC2CCc3[nH]ncc3C2)n(Cc2cc(F)c(F)c(F)c2)c1=O` (racemic) [Compound I-0208], for which the IC50 was 230 nM and 100 to 1000 nM.

In turn, `COc1ccc(Nc2nc(=O)n(Cc3ccc[nH]c3=O)c(=O)n2C2CCCc3cc(F)c(F)cc32)cc1` (racemic) [Compound I-0257] returned an IC50 of 2900 nM. This counts as single-digit micromolar.

`COc1ccc(Nc2nc(=O)n(Cc3ccc[nH]c3=O)c(=O)n2C2CCc3cc(F)c(F)cc32)cc1` (racemic) [Compound I-0258]: the IC50 is 3500 nM and 1000 to 10000 nM.

As for `Cc1c[nH]nc1[C@@H]1C[C@H]1Nc1nc(=O)n(Cc2ccc[nH]c2=O)c(=O)n1Cc1cc(F)c(F)c(F)c1` (racemic) [II-0373], half-maximal inhibition (IC50) was put at 430 nM.

Molecule `O=c1[nH]cccc1Cn1c(=O)nc(Nc2ccc(F)cc2Cl)n(Cc2cc(F)c(F)c(F)c2)c1=O` [Compound I-0001] showed an IC50 of 100 to 1000 nM.

Take `Cc1nc2cc(Cl)c(Nc3nc(=O)n(Cc4ccc[nH]c4=O)c(=O)n3Cc3cc(F)cc(Cl)c3)cc2n1C` [Compound I-0005]: the IC50 is below 100 nM.

Turning to `Cc1nc2cc(Cl)c(Nc3nc(=O)n(Cc4ccc[nH]c4=O)c(=O)n3Cc3cc(F)c(F)cc3F)cc2n1C` [Compound I-0006], the IC50 is below 100 nM.

`Cc1nc2cc(Cl)c(Nc3nc(=O)n(Cc4ccc[nH]c4=O)c(=O)n3Cc3cc(F)c(F)c(C#N)c3)cc2n1C` [Compound I-0010] returned an IC50 below 100 nM.

Turning to `O=c1[nH]cccc1Cn1c(=O)nc(Nc2ccc(O)cc2)n(Cc2cc(F)c(F)c(F)c2)c1=O` [Compound I-0027], the IC50 is below 100 nM.

Regarding `Cc1cc(Oc2ccc(Nc3nc(=O)n(Cc4ccc[nH]c4=O)c(=O)n3Cc3cc(F)c(F)c(F)c3)cc2)no1` [Compound I-0048], the IC50 was 440 nM and 100 to 1000 nM.

The molecule `COc1ccc(Nc2nc(=O)n(Cc3ccc[nH]c3=O)c(=O)n2Cc2cc(F)c(F)c(F)c2)c(O)c1` [Compound I-0056] had a half-inhibitory concentration (IC50) below 100 nM.

As for `CN(C)C(=O)c1ccc(Cn2c(=O)nc(Nc3cc4cn(C)nc4cc3Cl)n(Cc3cc(F)c(F)c(F)c3)c2=O)c(=O)[nH]1` [Compound I-0063], the IC50 is below 100 nM.

`COc1ccc(Nc2nc(=O)n(Cc3ccc(C(=O)N(C)C)[nH]c3=O)c(=O)n2Cc2cc(F)c(F)c(F)c2)cc1` [Compound I-0072] had an IC50 below 100 nM.

Molecule `COc1ccc(Nc2nc(=O)n(Cc3ccc(C(=O)NCCN(C)C)[nH]c3=O)c(=O)n2Cc2cc(F)c(F)c(F)c2)cc1` [Compound I-0074] registered an IC50 below 100 nM.

In turn, `Cc1nc2cc(Cl)c(Nc3nc(=O)n(Cc4cc(Cl)c[nH]c4=O)c(=O)n3Cc3cc(F)c(F)c(F)c3)cc2n1C` [Compound I-0078] registered an IC50 below 100 nM.

Molecule `COc1ccc(Nc2nc(=O)n(Cc3cc4ccncc4[nH]c3=O)c(=O)n2Cc2cc(F)c(F)c(F)c2)cc1` [Compound I-0080] registered an IC50 below 100 nM.

In the case of `COc1ccc(Nc2nc(=O)n(Cc3c[nH]ccc3=O)c(=O)n2Cc2cc(F)c(F)c(F)c2)cc1` [Compound I-0083], the IC50 was 1800 nM and 1000 to 10000 nM.

`CNC(=O)c1c[nH]c(=O)c(Cn2c(=O)nc(Nc3ccc(OC)cc3)n(Cc3cc(F)c(F)c(F)c3)c2=O)c1` [Compound I-0087] showed an IC50 below 100 nM.

On to `COc1ccc(Nc2nc(=O)n(Cc3cc(C(N)=O)c[nH]c3=O)c(=O)n2Cc2cc(F)c(F)c(F)c2)cc1` [Compound I-0088], for which the IC50 was below 100 nM.

`COc1ccc(Nc2nc(=O)n(Cc3cc(C(=O)O)c[nH]c3=O)c(=O)n2Cc2cc(F)c(F)c(F)c2)cc1` [Compound I-0089]: the IC50 is below 100 nM.

`COc1ccc(Nc2nc(=O)n(Cc3cc(C(=O)NCCN(C)C)c[nH]c3=O)c(=O)n2Cc2cc(F)c(F)c(F)c2)cc1` [Compound I-0092]: the IC50 was below 100 nM.

On to `COCCOc1ccc(Nc2nc(=O)n(Cc3ccc[nH]c3=O)c(=O)n2Cc2cc(F)c(F)c(F)c2)c(Cl)c1` [Compound I-0096], for which the IC50 was below 100 nM.

Take `Cn1cnc2cc(Cl)c(Nc3nc(=O)n(Cc4ccc[nH]c4=O)c(=O)n3Cc3cc(F)c(F)c(F)c3)cc2c1=O` [Compound I-0097]: the 50% inhibitory concentration (IC50) was below 100 nM.

On to `O=c1[nH]cccc1Cn1c(=O)nc(Nc2cc3nccnc3cc2Cl)n(Cc2cc(F)c(F)c(F)c2)c1=O` [Compound I-0098], for which the IC50 was below 100 nM.

`COc1ccc(Nc2nc(=O)n(Cc3c[nH]c(=O)[nH]c3=O)c(=O)n2Cc2cc(F)c(F)c(F)c2)cc1` [Compound I-0099]: the IC50 was below 100 nM.

Regarding `COc1ccc(Nc2nc(=O)n(Cc3cc(=O)[nH][nH]c3=O)c(=O)n2Cc2cc(F)c(F)c(F)c2)cc1` [Compound I-0102], the IC50 was 850 nM and 100 to 1000 nM.

In turn, `COc1ccc(Nc2nc(=O)n(Cc3c[nH]c(=S)[nH]c3=O)c(=O)n2Cc2cc(F)c(F)c(F)c2)cc1` [Compound I-0103] registered an IC50 below 100 nM.

For `COc1ccc(Nc2nc(=O)n(Cc3cc(-c4cn(C)cn4)c[nH]c3=O)c(=O)n2Cc2cc(F)c(F)c(F)c2)cc1` [Compound I-0105], the IC50 is below 100 nM.

Take `COc1ccc(Nc2nc(=O)n(Cc3nc(Br)c[nH]c3=O)c(=O)n2Cc2cc(F)c(F)c(F)c2)cc1` [Compound I-0106]: the IC50 was 1900 nM and 1000 to 10000 nM.

Take `Cn1cc2cc(Nc3nc(=O)n(Cc4ccc[nH]c4=O)c(=O)n3Cc3cc(F)c(F)c(F)c3)ccc2n1` [Compound I-0143]: the IC50 was below 100 nM.

Regarding `Cn1cnc2ccc(Nc3nc(=O)n(Cc4ccc[nH]c4=O)c(=O)n3Cc3cc(F)c(F)c(F)c3)cc21` [Compound I-0144], the IC50 is below 100 nM.

With `CNC(=O)c1ccc(Nc2nc(=O)n(Cc3ccc[nH]c3=O)c(=O)n2Cc2cc(F)c(F)c(F)c2)cc1` [Compound I-0149], the IC50 is 3500 nM and 1000 to 10000 nM.

Turning to `CS(=O)(=O)Nc1ccc(Nc2nc(=O)n(Cc3ccc[nH]c3=O)c(=O)n2Cc2cc(F)c(F)c(F)c2)cc1` [Compound I-0151], the IC50 was 970 nM and 100 to 1000 nM.

In the case of `O=c1[nH]cccc1Cn1c(=O)nc(Nc2ccc(-c3cc[nH]n3)cc2)n(Cc2cc(F)c(F)c(F)c2)c1=O` [Compound I-0154], the IC50 was 1300 nM and 1000 to 10000 nM.

With `O=c1[nH]cccc1Cn1c(=O)nc(NC2CCCC2)n(Cc2cc(F)c(F)c(F)c2)c1=O` [Compound I-0204], the IC50 is 610 nM and 100 to 1000 nM.

Turning to `CO[C@H]1C[C@H](Nc2nc(=O)n(Cc3ccc[nH]c3=O)c(=O)n2Cc2cc(F)c(F)c(F)c2)C1` [Compound I-0207], the IC50 is 1900 nM and 1000 to 10000 nM.

On to `COc1ccc(Nc2nc(=O)n(Cc3ccc[nH]c3=O)c(=O)n2Cc2nc3ccccc3s2)cc1` [Compound I-0223], for which the IC50 is 4300 nM and 1000 to 10000 nM.

On to `COc1ccc(Nc2nc(=O)n(Cc3ccc[nH]c3=O)c(=O)n2Cc2cc(F)cc(C#N)c2)cc1` [Compound I-0234], for which the IC50 is below 100 nM.

Turning to `Cn1cc(Nc2nc(=O)n(Cc3ccc[nH]c3=O)c(=O)n2Cc2cc(F)c(F)c(F)c2)c(Cl)cc1=O` [Compound I-0244], the IC50 is below 100 nM.

`O=c1cc(Cl)c(Nc2nc(=O)n(Cc3ccc[nH]c3=O)c(=O)n2Cc2cc(F)c(F)c(F)c2)c[nH]1` [Compound I-0246]: the IC50 was below 100 nM.

As for `COc1ccc(Nc2nc(=O)n(Cc3cc(-c4cnn(C)c4)c[nH]c3=O)c(=O)n2Cc2cc(F)c(F)c(F)c2)cc1` [Compound I-0259], the IC50 is below 100 nM.

The molecule `Cc1nc2cc(Cl)c(Nc3nc(=O)n(Cc4ccc[nH]c4=O)c(=O)n3Cc3cc(F)c(F)c(F)c3F)cc2n1C` [Compound I-0265] had an IC50 below 100 nM.

Take `Cc1nc2cc(Cl)c(Nc3nc(=O)n(Cc4ccc[nH]c4=O)c(=O)n3Cc3ccc(F)c(C#N)c3)cc2n1C` [Compound I-0266]: the IC50 is below 100 nM.

For the molecule `Cn1cc2cc(Nc3nc(=O)n(Cc4ccc[nH]c4=O)c(=O)n3Cc3cc(F)cc(C#N)c3)c(Cl)cc2n1` [Compound I-0268], the IC50 is below 100 nM.

With `Cn1cc2cc(Nc3nc(=O)n(Cc4cc(F)c[nH]c4=O)c(=O)n3Cc3ccc(F)c(C#N)c3)c(Cl)cc2n1` [Compound I-0270], the IC50 is below 100 nM.

Take `CS(=O)(=O)CCCn1cc2cc(Nc3nc(=O)n(Cc4ccc[nH]c4=O)c(=O)n3Cc3cc(F)c(F)c(F)c3)c(Cl)cc2n1` [Compound I-0287]: the IC50 was below 100 nM.

`CC(=O)N1CC(n2cc3cc(Nc4nc(=O)n(-c5cncc6ccccc56)c(=O)n4Cc4cc(F)c(F)c(F)c4)c(Cl)cc3n2)C1` [Compound I-0289] came in with an IC50 below 100 nM.

The molecule `COc1ccc(Nc2cc(=O)n(Cc3ccc[nH]c3=O)c(=O)n2Cc2cc(F)c(F)c(F)c2)cc1` [Compound I-0326] came in with a 50% inhibitory concentration (IC50) of 65 nM.

As for `Cn1cc2cc(Nc3nc(=O)n(Cc4cc(C(=O)NC5CC5)c[nH]c4=O)c(=O)n3Cc3cc(F)c(F)c(F)c3)c(Cl)cc2n1` [Compound I-0333], the IC50 is below 100 nM.

For the molecule `COc1ccc(Nc2nc(=O)n(Cc3cc(C)on3)c(=O)n2Cc2cc(F)c(F)c(F)c2)cc1` [Compound I-0334], the IC50 is 870 nM and 100 to 1000 nM.

For `COc1ccc(Nc2nc(=O)n(Cc3cc(C)[nH]n3)c(=O)n2Cc2cc(F)c(F)c(F)c2)cc1` [Compound I-0340], the IC50 was 840 nM and 100 to 1000 nM.

`N#Cc1cc(Cn2c(Nc3ccc4c(c3)CCO4)nc(=O)n(-c3cncc(CO)c3)c2=O)ccc1F` [Compound I-0356] displayed an IC50 below 100 nM.

In turn, `CN(C)C(=O)Cn1cc2cc(Nc3nc(=O)n(Cc4ccc[nH]c4=O)c(=O)n3Cc3cc(F)c(F)c(F)c3)c(Cl)cc2n1` [Compound I-0367] came in with an IC50 below 100 nM.

Turning to `O=c1[nH]cccc1Cn1c(=O)nc(Nc2ccc(OCCO)cc2Cl)n(Cc2cc(F)c(F)c(F)c2)c1=O` [Compound I-0371], the IC50 is below 100 nM.

`COc1ccc(Nc2nc(=O)n(Cc3cc(-c4cccnc4)c[nH]c3=O)c(=O)n2Cc2cc(F)c(F)c(F)c2)cc1` [Compound I-0386]: the IC50 is below 100 nM.

For `O=c1[nH]cccc1Cn1c(=O)nc(Nc2ccc(-c3cocn3)cc2Cl)n(Cc2cc(F)c(F)c(F)c2)c1=O` [Compound I-0396], the IC50 was 3100 nM and 1000 to 10000 nM.

For `O=C1OCCN1c1ccc(Nc2nc(=O)n(Cc3ccc[nH]c3=O)c(=O)n2Cc2cc(F)c(F)c(F)c2)c(Cl)c1` [Compound I-0397], the IC50 is 730 nM and 100 to 1000 nM.

Turning to `CCc1nc2cc(Cl)c(Nc3nc(=O)n(Cc4ccc[nH]c4=O)c(=O)n3Cc3cc(F)c(F)c(F)c3)cc2n1C` [Compound I-0399], the IC50 is below 100 nM.

Take `COc1ccc(Nc2nc(=O)n(Cc3cnc(C)[nH]c3=O)c(=O)n2Cc2cc(F)c(F)c(F)c2)cc1` [Compound I-0403]: the half-inhibitory concentration (IC50) was 310 nM and 100 to 1000 nM.

These data come from patent publication US12559474B2, “Triazine derivatives having virus replication inhibitory activity and pharmaceutical composition comprising the same” (priority 2021, dated 2026).
